Assays:
[1] = tested on: murine RCC E28 cells; assay: Proliferation of murine RCC E28 cells (viable cell count); format: cell-based; conditions: for sensitivity of MYC-driven RCC line to compound: 140 nM and 70 nM
Excerpt: In addition, murine renal cell carcinoma E28 cell line was used in this study. These cells were maintained in DMEM supplemented with 10% (vol/vol) FBS, 1% glutamine, 1% sodium pyruvate, 1% non-essential amino acids, and Antibiotic-Antimycotic.
(§1) A 50 microliter volume of cells was taken from the culture medium and combined with an equal volume of 0.4% Trypan blue stain. Then, 10 microliters of this 1:1 mixture was pipetted onto a slide and placed into a hemocytometer for cell counting. The viable cell count was used for measuring cell proliferation in the sample.
Activity of compounds NSC750212, NSC750719, NSC750722, and NSC756089 (see, FIG. 1) was investigated on a MYC-driven RCC line derived from a transgenic mouse model using low dose ranges of 280 nM, 140 nM, and 70 nM. […] FIG. 2, illustrates the results of treatment of murine RCC E28 cells with, from left to right: DMSO and corresponding AZP derivatives at concentrations of 70 nM, 140 nM and 280 nM. Even at 70 nM, NSC750212 causes about 90% reduction of cell proliferation compared to the vehicle control (DMSO).

[2] = tested on: human RCC A498 cell line; assay: Proliferation / viability of human RCC A498 cell line; format: cell-based; conditions: for reduction in viability / suppression: 70 nM, 48 hours, human RCC A498; for SAR analysis: relative activity: RCC cell lines, substitution on C-4 phenyl ring
Excerpt: as §1
To further expand the structure activity relationship (SAR), six additional AZP derivatives were synthesized: AR-02, AR-03, AR-038, AR-051, AR-061 and AR-065, with different substituents on the C-4 phenyl ring (FIG. 1). Having validated that exemplary AZP compounds show efficacy in our murine-derived RCC line, it was sought to determine if this finding could be relevant in human RCC line, A498. Exemplary compound NSC750212 and newly synthesized analogues were tested in A498 cell line (FIG. 3).

[3] = tested on: CCRF (T lymphoblast); assay: Proliferation of lymphoma line CCRF; format: cell-based, human
Excerpt: (§2) Human T-cell acute lymphoblastic leukemias CCRF, DND-41, KOPT-K1, human B-cell Burkitt's lymphoma P493-6, and murine lymphoma 6780 were used in this study. Human and mouse lymphomas were all maintained in RPMI supplemented with 10% (vol/vol) FBS, 1% glutamine, 1% sodium pyruvate, 1% non-essential amino acids, and Antibiotic-Antimycotic. All cell culture reagents used were obtained from Gibco (Thermo Fisher Scientific Inc.).
as §1
(§3) Activity of exemplary compounds against lymphomas was also investigated. […] FIG. 4 illustrates proliferative responses of various human lymphoma lines, from left to right: CCRF, DND-41, KOPR, and MYC-driven lymphoma lines P493 and 6780, at doses of 70 nM, 140 nM, and 280 nM vs a control (DMSO). […] KOPT and P-493 still show a significant but much less suppression, at roughly 85%. At 140 nM, CCRF and 6780 show an increase in suppression at roughly 92% and 94%, respectively.

[4] = tested on: DND-41 (child T lymphoblastic leukemia); assay: Proliferation of lymphoma line DND-41; format: cell-based, human
Excerpt: as §2, §1, §3

[5] = tested on: KOPT-K1 (human T-ALL); assay: Proliferation of lymphoma line KOPT-K1; format: cell-based
Excerpt: as §2, §1, §3

[6] = tested on: human B-cell Burkitt's lymphoma P493-6; assay: Proliferation of MYC-driven lymphoma line P493-6; format: cell-based; conditions: P-493
Excerpt: as §2, §1, §3

[7] = tested on: murine lymphoma 6780; assay: Proliferation of MYC-driven lymphoma line 6780; format: cell-based
Excerpt: as §2, §1, §3

[8] = tested on: human RCC A498 xenografts; assay: Human RCC A498 xenograft in NSG mice; format: in vivo; conditions: intratumoral treatment for a week, vs DMSO control
[9] = tested on: human MYC-driven Burkitt Lymphoma line P493 xenografts; assay: Human lymphoma P493 xenograft in NSG mice; format: in vivo; conditions: intratumoral treatment for a week, vs DMSO control
[10] = tested on: bovine tubulin; assay: Tubulin Polymerization Assay (EMD Millipore); format: biochemical; conditions: compared to positive control Nocodazole and negative control Paclitaxel
Description: The Tubulin Polymerization Assay (EMD Millipore) was used to confer the mechanism of azapodophyllotoxin derivatives. The polymerization reaction was conducted in a 96-well plate. Paclitaxel was used as the non-tubulin-inhibiting negative control, and Nocodazole was used as the tubulin-inhibiting positive control. First, a solution of 99% pure bovine tubulin stock solution in 1× polymerization buffer (PB) containing 1 mM GTP was made. Second, a 1:9 mixture of each drug and control with PB-GTP solution was also prepared. In each well, 60 microliters of the first solution (99% tubulin solution in 1×PB and 1 mM GTP) was combined with 60 microliters of one of each of the prepared 1:9 drug to PB-GTP solutions. All solutions were prepared on ice prior to combining and placement into the spectrophotometer. Tubulin assembly was measured through turbidity variation (light scattering) in the spectrophotometer every 30 seconds at 350 nm (with shaking in between each reading) over the course of 90 minutes.
Given the structure of NSC750212 and computational docking studies of Azapodophyllotoxins in general, it has been stipulated that they may target tubulins. Using EMD Millipore Tubulin Polymerization Assay, NSC750212 was compared to a negative control, Paclitaxel, and a positive control, Nocodazole, to determine whether its mechanism is via the inhibition of tubulin polymerization.

[11] = tested on: tubulin; assay: Nano-fluidic proteomic immunoassay (NIA) of tubulin in treated tumors; format: in vivo, human
Description: NIA was performed using the ProteinSimple Nanopro 1000 machine. The final protein concentration loaded into each nano-fluidic capillary of the machine was 0.1 ug/uL. The primary antibody for Tubulin (Cell Signaling Technologies) was diluted 1:100. The primary antibody for HSP70 (Santa Cruz Biosciences) was diluted 1:500. The secondary anti-rabbit and anti-mouse HRP-conjugates were both diluted 1:100. Chemiluminescence signal was recorded after the addition of the detection reagent, which consists of a 1:1 ratio of luminol and peroxide. Analysis of the chemiluminescence data from NIA was performed via the ProteinSimple Compass software.
Fine needle aspirations (FNAs) are defined to be biopsies performed via the aspiration of the tumor using a needle of […] or smaller. Core biopsies are any biopsies done using a needle larger than […]. Techniques for performing FNAs and core biopsies are similar. The needle tip is plunged into the tumor and retracted, in a fast and repetitive motion, while applying suction at the needle tip. […]
To investigate if this mechanism is consistent in vivo, we used the Nano ImmunoAssay to analyze core biopsies and fine needle aspirates (FNA) of tumors during the course of treatment with NSC750212. […] There are no other charged isoforms of tubulin detected by NIA (FIG. 7, panel D).

[12] = tested on: monoglycerols; assay: DESI-MSI of monoglycerols in treated RCC; format: in vivo, mouse; conditions: primary MYC-driven RCC, upon termination of treatment
Excerpt: DESI-MSI functions by directing a pneumatically assisted solvent electrospray onto the surface of interest (Takats, Wiseman, Gologan, & Cooks, 2004). The electrosprayed solvent droplets dissolve certain chemical constituents off the surface investigated and also induce the formation of secondary charged-droplets that take off from the surface. These secondary droplets already contain constituents of the sample and produce molecular ions of the analytes upon evaporation in the atmospheric pressure interface of the mass spectrometer. This way, electrospray-like mass spectrometric information is obtained on the sample, featuring multiply charged ions and solvent adducts among other electrospray-specific spectral features.
Though we expected a complete depletion of metabolism upon tubulin inhibition by NSC750212, our DESI-MSI analyses uncover a more interesting mechanism. […] Monoglycerol metabolism has been implicated in cancer, due to the high need of cancer cells of energy and building blocks. […] As described herein, DESI-MSI is a valuable tool for use in uncovering the mechanism of action of exemplary azapodophyllotoxin derivatives.

COc1cccc(C2C3=C(COC3=O)N(CCO)c3cc4c(cc32)CCC4)c1 (centres unmarked) [NSC750719]
sensitivity of MYC-driven RCC line to compound ([1]; 280 nM): very high sensitivity

O=C1OCC2=C1C(c1cccc(Br)c1)c1cc3c(cc1N2CCO)CCC3 (centres unmarked) [AR-038]
reduction in viability / suppression [2]: 90%
SAR analysis: relative activity [2]: promising activity

COc1cccc(C2C3=C(COC3=O)N(CCO)c3cc4c(cc32)OCCO4)c1 (centres unmarked) [NSC750722]
sensitivity of MYC-driven RCC line to compound ([1]; 280 nM): very high sensitivity

COc1cc(C2C3=C(COC3=O)N(CCO)c3cc4c(cc32)CCC4)cc(OC)c1OC (centres unmarked) [NSC750212]
reduction of cell proliferation compared to the vehicle control (DMSO) ([1]; 70 nM, 48 hours): about 90%
suppression of proliferation when compared to 70 nM ([1]; 140 nM, 48 hours): two-fold
sensitivity of MYC-driven RCC line to compound ([1]; 280 nM): very high sensitivity
efficacy at higher concentration than 140 nM ([1]; 280 nM, 48 hours): no further efficacy
reduction in viability / suppression [2]: 95%
SAR analysis: relative activity [2]: most active
reduction in proliferation ([3]; 70 nM, vs control (DMSO)): ~90%
suppression of proliferation ([3]; 140 nM): roughly 92%
suppression of proliferation ([3]; 280 nM): about 96%
dose response ([3]; 70, 140, 280 nM): dose-dependent response
maximal dose (maximally effective dose) [4]: 70 nM
reduction in proliferation ([4]; 70 nM): ~95%
change in suppression vs 70 nM ([4]; 140 nM): no dose response
suppression of proliferation ([5]; 70 nM): roughly 85%
suppression of proliferation ([5]; 140 nM): roughly 87%
reduction of proliferation ([5]; 280 nM): roughly 89%
dose response ([5]; 70, 140, 280 nM): dose-dependent response
suppression of proliferation ([6]; 70 nM): roughly 85%
reduction in proliferation ([6]; 140 nM): over 90%
suppression of proliferation ([6]; 280 nM): ~98%
dose response ([6]; 70, 140, 280 nM): dose-dependent response
reduction in proliferation ([7]; 70 nM): ~90%
suppression of proliferation ([7]; 140 nM): ~94%
suppression of proliferation ([7]; 280 nM): maximal suppression
dose response ([7]; 70, 140, 280 nM): dose-dependent response
tumor burden [8]: significant reduction in tumor burden
tumor burden [9]: significant reduction in tumor burden
inhibition of tubulin polymerization (turbidity at 350 nm over 90 minutes) [10]: more efficacious than Nocodazole
lowered levels of tubulin expression vs control ([11]; core biopsy of tumor during treatment): at least two-fold
lowered levels of tubulin expression vs control ([11]; fine needle aspirate (FNA) of tumor during treatment): at least two-fold
levels of monoglycerols compared to untreated RCC [12]: elevated levels of monoglycerols
